Data published in US5057495A, “Atrial hypotensive peptide” (Queen's University at Kingston, priority 1988, dated 1991).
Entries after “also recorded” stand apart in the source; their conditions may differ. Bridge positions count the residues as written; N and C are the ends. Peptide text beside a SMILES is read from it.

B1: pro-ANP: precursor of ANP, tested for cross reactivity with the antiserum (protein, UniProt P01161 25-152, looked up)
pro-form: NPVYSAVSNTDLMDFKNLLDHLEEKMPVEDEVMPPQALSEQTDEAGAALSSLSEVPPWTGEVNPSQRDGGALGRGPWDPSDRSALLKSKLRALLAGPRSLRRSSCFGGRIDRIGAQSGLGCNSFRYRR
modifications: pro-form

Legend:
[1] = test system: assay rats anesthetized with sodium pentobarbital; test: I.V. bolus injection into anesthetized bioassay rats: cardiovascular and renal responses; format: in vivo, rat; settings: 3 nmol bolus injection
Description: Experiments were performed using male Sprague-Dawley rats, ranging in weight from 270-362 g. The rats were anesthetized by an intraperitional injection of sodium pentobarbital (70 mg.kg-1; MTC Pharmaceuticals, Hamilton, Ont.). Additional small amounts of anesthetic were administered as required in the course of the experiment. Body temperature was maintained by a heating lamp and rectal temperature monitored by a rectal probe. After installing a tracheal cannula, a femoral vein was cannulated and a priming infusion of saline (0.9% NaCl) was administered over a 20 min period (1.1 ml); this was followed by a maintenance saline infusion of 1.2 ml.h-1. The femoral artery was then cannulated for blood pressure measurement (Statham pressure transducer, model P23Db). A catheter was also advanced via the right external jugular vein towards the right heart for bolus injections of vehicle, ANF or the atrial peptide of the present invention (AHP). After tying off the penis, the bladder was cannulated for urine collection. […] The EKG was recorded for determination of heart rate.
Urine was collected in preweighed vials and volume calculated by weighing. […]
Zero time was established by 40-60 mins from the beginning the priming saline infusion. […] Cardiovascular measurements were analyzed at 5 min intervals during control and at 1, 5, 10, 15 and 20 mins following administration of injectate. […]

[2] = test system: antiserum to iso-rANP(1-20) (P2A); test: Double immunodiffusion / cross reactivity of antiserum raised against P2A; format: binding, rabbit

| Molecule | diuretic, natriuretic, hypotensive and bradycardic response of ring peptides (FIG. 5) [1] | reaction with antiserum against P2A (precipitin lines / cross reactivity) [2] |
| --- | --- | --- |
| CC[C@H](C)[C@@H]1NC(=O)[C@H](CCCNC(=N)N)NC(=O)[C@H](CC(=O)O)NC(=O)[C@H]([C@@H](C)CC)NC(=O)[C@H](CCCCN)NC(=O)[C@H](CCC(N)=O)NC(=O)CNC(=O)[C@H](Cc2ccccc2)NC(=O)[C@@H](N)CSSC[C@@H](C(=O)O)NC(=O)CNC(=O)[C@H](CC(C)C)NC(=O)[C@H](CCCNC(=N)N)NC(=O)[C@H](CO)NC(=O)[C@H](C(C)C)NC(=O)[C@H](C)NC(=O)CNC1=O [Iso-rANP(23-39)] (H-CFGQKIDRIGAVSRLGC-OH; disulfide 1-17) | significant diuretic, natriuretic, hypotensive and bradycardin response |  |
| rANP(23-39): ring portion of rANP [reference compound] | substantially biologically inactive |  |
| B1 |  | No cross reactivity; also recorded: did not cross-react |
